Key:
Assay type in all cases: binding
Conditions in all cases: Compound Concentration 10 µM
panel of 442 kinases [1] = molecular target: T1, panel of 442 kinases (Homo sapiens, UniProt P42345)
T1 construct: purchased KINOMEscan
Excerpt: (§1) We assessed the selectivity of members of this scaffold using the KINOMEscan methodology across a near comprehensive panel of 442 kinases [[18,27]].

panel of 442 kinases [2] = molecular target: T2, panel of 442 kinases (Homo sapiens, UniProt Q05655)
T2 construct: purchased KINOMEscan
Excerpt: as §1

panel of 442 kinases [3] = molecular target: T3, panel of 442 kinases (Homo sapiens, UniProt Q9H4B4)
T3 construct: purchased KINOMEscan
Excerpt: as §1

T3 sequence (Q9H4B4 whole entry): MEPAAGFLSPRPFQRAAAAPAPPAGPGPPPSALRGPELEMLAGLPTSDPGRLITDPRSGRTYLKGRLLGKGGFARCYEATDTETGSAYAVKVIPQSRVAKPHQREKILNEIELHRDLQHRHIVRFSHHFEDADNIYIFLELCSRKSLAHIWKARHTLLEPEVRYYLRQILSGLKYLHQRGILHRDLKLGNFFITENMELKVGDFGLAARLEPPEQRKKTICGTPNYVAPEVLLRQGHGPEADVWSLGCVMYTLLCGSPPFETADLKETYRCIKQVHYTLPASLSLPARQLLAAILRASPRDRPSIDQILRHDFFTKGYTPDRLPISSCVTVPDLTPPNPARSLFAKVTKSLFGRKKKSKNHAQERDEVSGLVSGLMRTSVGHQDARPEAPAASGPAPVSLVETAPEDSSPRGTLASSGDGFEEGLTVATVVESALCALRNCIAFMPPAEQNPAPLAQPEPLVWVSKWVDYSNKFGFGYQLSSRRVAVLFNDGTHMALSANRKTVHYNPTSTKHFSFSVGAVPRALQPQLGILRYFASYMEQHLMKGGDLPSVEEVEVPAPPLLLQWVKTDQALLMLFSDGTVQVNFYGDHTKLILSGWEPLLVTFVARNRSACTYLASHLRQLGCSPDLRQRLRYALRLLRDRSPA
T2 sequence (Q05655 whole entry): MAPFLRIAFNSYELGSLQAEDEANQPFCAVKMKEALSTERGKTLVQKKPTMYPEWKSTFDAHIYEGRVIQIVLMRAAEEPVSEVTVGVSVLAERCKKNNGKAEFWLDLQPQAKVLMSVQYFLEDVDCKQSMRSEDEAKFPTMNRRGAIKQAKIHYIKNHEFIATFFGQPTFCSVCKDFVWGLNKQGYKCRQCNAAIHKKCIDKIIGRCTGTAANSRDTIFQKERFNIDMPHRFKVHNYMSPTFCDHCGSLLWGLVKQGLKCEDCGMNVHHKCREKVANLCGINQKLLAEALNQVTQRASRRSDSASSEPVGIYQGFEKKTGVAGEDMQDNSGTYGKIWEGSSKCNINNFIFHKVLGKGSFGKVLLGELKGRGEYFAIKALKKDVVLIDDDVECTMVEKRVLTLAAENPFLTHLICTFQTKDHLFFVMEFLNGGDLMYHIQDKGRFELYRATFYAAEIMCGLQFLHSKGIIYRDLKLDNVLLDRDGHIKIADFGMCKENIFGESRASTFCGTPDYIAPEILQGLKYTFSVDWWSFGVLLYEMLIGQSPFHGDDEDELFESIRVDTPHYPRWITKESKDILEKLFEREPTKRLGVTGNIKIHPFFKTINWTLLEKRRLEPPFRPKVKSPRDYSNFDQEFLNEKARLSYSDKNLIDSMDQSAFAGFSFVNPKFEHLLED

| SMILES | KINOMEscan: MTOR (panel of 442 kinases [1]) | KINOMEscan: PRKCD (panel of 442 kinases [2]) | KINOMEscan: PLK3 (panel of 442 kinases [3]) |
| --- | --- | --- | --- |
| COc1cc(C(=O)N2CCC(N3CCN(C)CC3)CC2)ccc1Nc1ncc2c(n1)N(C)c1ccccc1C(=O)N2C [15 (LRRK2-IN-1)] | 97 | 75 | 51 |
| COc1cc(C(=O)N2CCC(N3CCN(C)CC3)CC2)ccc1Nc1ncc2c(n1)N1CCc3cccc(c31)C(=O)N2C [Compound 24] |  | 67 | 3.8 |
| COc1cc(C(=O)N2CCC(N3CCN(C)CC3)CC2)ccc1Nc1ncc2c(n1)N(C1CCCC1)c1ccccc1C(=O)N2C [Compound 25, 11-cyclopentyl-2-((2-methoxy-4-(4-(4-methylpiperazin-1-yl)piperidine-1-carbonyl)phenyl)amino)-5-methyl-5H-benzo[e]pyrimido[5,4-b][1,4]diazepin-6(11H)-one] | 100 | 100 | 73 |
| CCOc1cc(C(=O)N2CCC(N3CCN(C)CC3)CC2)ccc1Nc1ncc2c(n1)N(C1CCCC1)c1ccccc1C(=O)N2C [Compound 26] | 100 | 100 | 84 |

Reference: paper PMC3914206
